The values that follow come from ChEMBL document CHEMBL1201862, “PubChem BioAssay data set” (2004).

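These data come from cells grown in 96-well plates and exposed to compound for 48 hours at five concentrations. The concentration for 50% growth inhibition is given as GI50.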 The source made the active and inactive calls. No stated cut-off is given here; in the data, active = GI50 up to about 1.1 µM and inactive = higher.

Some test systems named below: A498; ACHN; BT-549; HOP-92; Hs-578T; KM12; M14; NCI-H226; NCI-H23; NCI-H460; NCI-H522; OVCAR-4; OVCAR-8; SK-MEL-5; SR; T47D; TK-10; UACC-62; UO-31; MOLT-4.
Common to all, as to experiment: NCI tumour cell line growth inhibition, 48 h

In the case of `CC(=O)c1ccc(Oc2c3ccccc3nc3ccccc23)cc1`, the GI50 with A498 is 16.1 µM (inactive); in the assay on ACHN it was 4.15 µM (inactive); with BT-549 it was 12.5 µM (inactive); in the assay on HOP-92, 12.4 µM (inactive); with Hs-578T it was 8.61 µM (inactive); in the assay on KM12 it was 7 µM (inactive). Also, the GI50 in the assay on M14 was 4.35 µM (inactive); with NCI-H226 it was 9.1 µM (inactive); with NCI-H23, 22.5 µM (inactive); with NCI-H460, 15.4 µM (inactive); with NCI-H522, 12.2 µM (inactive); with OVCAR-4, 5.93 µM (inactive). Also, the GI50 was 7.83 µM (inactive) in the assay with OVCAR-8; 14.9 µM (inactive) in the assay with SK-MEL-5; 1.01 µM (active) with SR; 3.72 µM (inactive) in the assay with T47D; 6.76 µM (inactive) in the assay with TK-10; 6.41 µM (inactive) in the assay on UACC-62. The GI50 in the assay with UO-31 is 3.83 µM (inactive).

Consider `CCCN(C(=O)c1c(Cl)nnc(Cl)c1C(=O)c1cc(Cl)nnc1Cl)c1cc(Cl)nnc1Cl`, for which the GI50 in the assay with A498 is 15.5 µM (inactive); in the assay with ACHN it was 12.9 µM (inactive); in the assay on BT-549, 9.73 µM (inactive); with HOP-92, 18.4 µM (inactive); in the assay on Hs-578T, 3.24 µM (inactive); in the assay on KM12, 11.5 µM (inactive). For the same compound, the GI50 in the assay on M14 was 16.1 µM (inactive); with MOLT-4 it was 3.36 µM (inactive); with NCI-H226, 18.5 µM (inactive); in the assay on NCI-H23, 5.77 µM (inactive); in the assay on NCI-H460, 20.9 µM (inactive); with NCI-H522, 3.24 µM (inactive). In addition, the GI50 is 14.5 µM (inactive) in the assay on OVCAR-4; 2.29 µM (inactive) with OVCAR-8; 9.18 µM (inactive) in the assay on SK-MEL-5; 3.08 µM (inactive) in the assay on SR; 4.55 µM (inactive) in the assay on T47D; 18 µM (inactive) in the assay on TK-10. The GI50 in the assay on UACC-62 is 10.6 µM (inactive); with UO-31, 17 µM (inactive).

`COc1ccc(OC)c2c1-c1nnnn1CCC2(C)C`: the GI50 with A498, with ACHN, in the assay on BT-549, in the assay on HOP-92, in the assay on Hs-578T and with KM12 was > 100 µM (inactive) throughout. In addition, the GI50 in the assay on M14, with MOLT-4, in the assay with NCI-H226, with NCI-H23, with NCI-H460 and in the assay with NCI-H522 was > 100 µM (inactive) in each case. Besides, the GI50 in the assay with OVCAR-4, in the assay with OVCAR-8, in the assay with SR, with T47D, with TK-10 and in the assay with UACC-62 was > 100 µM (inactive) throughout. In addition, the GI50 in the assay with UO-31 is > 100 µM (inactive).

For the compound `C[C@H](NC1=C(Cl)C(=O)c2c(O)ccc(O)c2C1=O)C(=O)Nc1ccc([N+](=O)[O-])cc1`, the GI50 in the assay on A498 was 2.39 µM (inactive); with ACHN, 2.94 µM (inactive); with BT-549, 4.02 µM (inactive); in the assay with HOP-92, 2.08 µM (inactive); with Hs-578T, 4.57 µM (inactive); with KM12, 1.82 µM (inactive). The GI50 is 1.25 µM (inactive) in the assay with M14; 10 µM (inactive) with MOLT-4; 1.91 µM (inactive) in the assay on NCI-H226; 2.02 µM (inactive) in the assay with NCI-H23; 2.06 µM (inactive) in the assay on NCI-H460; 2.9 µM (inactive) in the assay with NCI-H522. Moreover, the GI50 is 1.73 µM (inactive) in the assay on OVCAR-4; 2.37 µM (inactive) with OVCAR-8; 1.76 µM (inactive) with SK-MEL-5; 2.47 µM (inactive) with SR; 3.25 µM (inactive) with T47D; 1.95 µM (inactive) in the assay with TK-10. The GI50 in the assay on UACC-62 was 2.4 µM (inactive).

As to `O=C(NC1(C(=O)O)CC1c1ccccc1)c1ccccc1` (stereo unspecified), the GI50 in the assay on A498, in the assay with ACHN, in the assay on BT-549, with HOP-92, with Hs-578T and in the assay on KM12 was > 100 µM (inactive) each time. In addition, the GI50 with M14, with MOLT-4, in the assay with NCI-H226, in the assay with NCI-H23, in the assay on NCI-H460 and in the assay on NCI-H522 was > 100 µM (inactive) in each case. The GI50 with OVCAR-4, in the assay with OVCAR-8, in the assay with SR, with T47D, in the assay with TK-10 and in the assay on UACC-62 was > 100 µM (inactive) each time. The GI50 in the assay on UO-31 was > 100 µM (inactive).

With `O=S(=O)(c1cc(Cl)ccc1Cl)N1CCN(c2cccc(Cl)c2)CC1`, the GI50 in the assay with A498, with ACHN, in the assay on BT-549, with HOP-92, with Hs-578T and with KM12 was > 100 µM (inactive) each time. Also, the GI50 in the assay with M14 is > 10 µM (inactive); in the assay with MOLT-4, > 100 µM (inactive); in the assay with NCI-H226, > 100 µM (inactive); with NCI-H23 it was > 100 µM (inactive); in the assay on NCI-H460 it was > 100 µM (inactive); with NCI-H522, > 100 µM (inactive). For the same compound, the GI50 in the assay with OVCAR-4 is > 100 µM (inactive); in the assay on OVCAR-8, > 100 µM (inactive); with SK-MEL-5, 52.6 µM (inactive); in the assay with SR it was > 100 µM (inactive); in the assay with T47D it was > 100 µM (inactive); with TK-10, > 100 µM (inactive). Besides, the GI50 in the assay on UO-31 is > 100 µM (inactive).

As to `COc1ccc(CC[N+]2(C)COc3cc4oc(=O)cc(C)c4cc3C2)cc1OC` (stereo unspecified), the GI50 in the assay with A498, in the assay with ACHN, with BT-549, in the assay with HOP-92, in the assay with Hs-578T and with KM12 was > 100 µM (inactive) in each case. Besides, the GI50 in the assay on M14 is > 100 µM (inactive); in the assay with MOLT-4, 1.61 µM (inactive); in the assay with NCI-H226 it was > 100 µM (inactive); in the assay on NCI-H23, > 100 µM (inactive); in the assay with NCI-H522, > 100 µM (inactive); in the assay with OVCAR-4 it was > 100 µM (inactive). In addition, the GI50 is > 100 µM (inactive) with OVCAR-8; > 100 µM (inactive) in the assay with SK-MEL-5; 0.0782 µM (active) in the assay with SR; > 100 µM (inactive) with T47D; > 100 µM (inactive) in the assay on TK-10; > 100 µM (inactive) with UACC-62. For the same compound, the GI50 in the assay on UO-31 was > 100 µM (inactive).

Consider `O=C(CC1C(=O)Nc2ccccc2[S+]1[O-])Nc1cccc(Cl)c1` (stereo unspecified), for which the GI50 is 13.2 µM (inactive) with A498; 33.7 µM (inactive) in the assay on ACHN; 26.3 µM (inactive) with BT-549; 19.5 µM (inactive) in the assay on HOP-92; 38.1 µM (inactive) with Hs-578T; > 57.9 µM (inactive) in the assay on KM12. In addition, the GI50 is > 42.4 µM (inactive) in the assay on M14; > 37.7 µM (inactive) with MOLT-4; 44.3 µM (inactive) in the assay on NCI-H226; > 44.9 µM (inactive) in the assay on NCI-H23; > 44.6 µM (inactive) in the assay on NCI-H460; > 53.8 µM (inactive) in the assay with OVCAR-4. Moreover, the GI50 was 33 µM (inactive) in the assay with OVCAR-8; > 30.9 µM (inactive) in the assay with SK-MEL-5; 4.93 µM (inactive) with SR; 11.2 µM (inactive) in the assay with T47D; > 58.9 µM (inactive) in the assay on TK-10; > 43.1 µM (inactive) with UACC-62. Also, in the assay with UO-31, the GI50 is 25.1 µM (inactive).

For the compound `Cc1oc2nc(N(C)C)n3nnnc3c2c1C`, the GI50 was 76.2 µM (inactive) in the assay on A498; 61.9 µM (inactive) in the assay on ACHN; 74.1 µM (inactive) in the assay with BT-549; > 100 µM (inactive) with HOP-92; > 100 µM (inactive) in the assay with Hs-578T; > 100 µM (inactive) in the assay on KM12. Besides, the GI50 is > 100 µM (inactive) with M14; > 100 µM (inactive) with MOLT-4; > 100 µM (inactive) with NCI-H226; > 100 µM (inactive) with NCI-H23; > 100 µM (inactive) in the assay on NCI-H522; 48 µM (inactive) in the assay on OVCAR-4. Moreover, the GI50 with OVCAR-8 was 76 µM (inactive); with SK-MEL-5, > 100 µM (inactive); in the assay on SR, > 10 µM (inactive); with T47D, > 100 µM (inactive); with TK-10 it was > 100 µM (inactive); in the assay with UACC-62 it was 49.9 µM (inactive). Also, in the assay with UO-31, the GI50 is 30.3 µM (inactive).

In the case of `Cc1cccc(Nc2cc(Cl)nc(SCC(=O)O)n2)c1C` [PIRINIXIC ACID], the GI50 with A498, in the assay on ACHN, in the assay on BT-549, in the assay with HOP-92, in the assay with Hs-578T and in the assay on KM12 was > 100 µM (inactive) throughout. The GI50 was > 100 µM (inactive) with M14; 63.1 µM (inactive) in the assay on MOLT-4; > 100 µM (inactive) with NCI-H226; > 100 µM (inactive) in the assay on NCI-H23; > 100 µM (inactive) with NCI-H460; > 100 µM (inactive) with NCI-H522. Further, the GI50 in the assay with OVCAR-4, with OVCAR-8, in the assay on SK-MEL-5, in the assay with SR, with T47D and in the assay with TK-10 was > 100 µM (inactive) each time. Moreover, the GI50 in the assay with UACC-62 is > 100 µM (inactive).
